Target: ATP-dependent translocase ABCB1 (Homo sapiens, UniProt P08183)
Assay: TP_TRANSPORTER: intracellular accumulation in CEM/MTX R cells
Format: functional, cell-based

Chain of ATP-dependent translocase ABCB1 (P08183 whole entry): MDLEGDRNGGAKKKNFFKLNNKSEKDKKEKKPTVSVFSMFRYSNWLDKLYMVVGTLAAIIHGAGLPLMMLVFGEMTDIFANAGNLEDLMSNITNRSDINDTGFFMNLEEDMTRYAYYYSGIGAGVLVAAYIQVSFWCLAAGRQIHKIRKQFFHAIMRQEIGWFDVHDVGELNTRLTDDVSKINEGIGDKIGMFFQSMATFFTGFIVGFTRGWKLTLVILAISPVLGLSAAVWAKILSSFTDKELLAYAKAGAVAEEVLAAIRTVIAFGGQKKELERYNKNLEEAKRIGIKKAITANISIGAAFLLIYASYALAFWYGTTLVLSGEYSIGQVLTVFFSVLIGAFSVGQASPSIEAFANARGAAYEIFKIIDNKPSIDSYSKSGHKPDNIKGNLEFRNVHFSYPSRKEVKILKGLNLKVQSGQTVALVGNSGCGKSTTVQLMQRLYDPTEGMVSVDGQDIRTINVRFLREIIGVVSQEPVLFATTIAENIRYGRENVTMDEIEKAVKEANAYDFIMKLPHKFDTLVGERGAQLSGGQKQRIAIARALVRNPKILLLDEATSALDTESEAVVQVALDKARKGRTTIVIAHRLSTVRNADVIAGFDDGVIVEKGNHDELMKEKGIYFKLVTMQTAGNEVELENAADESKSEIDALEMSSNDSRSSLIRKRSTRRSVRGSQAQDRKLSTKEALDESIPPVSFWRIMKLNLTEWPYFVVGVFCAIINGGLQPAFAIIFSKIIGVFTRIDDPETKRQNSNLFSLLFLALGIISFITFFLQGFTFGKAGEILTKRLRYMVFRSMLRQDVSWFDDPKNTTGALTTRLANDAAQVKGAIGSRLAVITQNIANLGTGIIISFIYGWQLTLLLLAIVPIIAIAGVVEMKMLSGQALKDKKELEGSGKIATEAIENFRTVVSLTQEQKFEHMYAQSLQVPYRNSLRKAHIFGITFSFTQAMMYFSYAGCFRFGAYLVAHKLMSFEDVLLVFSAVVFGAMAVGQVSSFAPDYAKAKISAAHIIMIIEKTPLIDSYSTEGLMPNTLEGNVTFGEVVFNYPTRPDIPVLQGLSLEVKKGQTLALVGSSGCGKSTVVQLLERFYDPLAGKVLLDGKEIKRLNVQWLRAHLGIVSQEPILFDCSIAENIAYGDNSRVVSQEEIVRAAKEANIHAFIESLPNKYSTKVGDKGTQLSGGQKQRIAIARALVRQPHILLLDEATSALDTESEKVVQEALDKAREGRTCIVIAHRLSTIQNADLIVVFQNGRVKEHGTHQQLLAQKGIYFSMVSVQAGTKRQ

How did the Activity turn out when `CN(Cc1cnc2nc(N)nc(N)c2n1)c1ccc(C(=O)N[C@@H](CCC(=O)O)C(=O)O)cc1` [METHOTREXATE] was run?
Its Activity is “substrate [+]”.

— ChEMBL document CHEMBL2074032, “Involvement of MDR1 P-glycoprotein in multifactorial resistance to methotrexate” (Int J Cancer, 1996)
